Laboratory results: US20050002943A1, “Amp-kinase agonists or adenosine pro-drugs as immuno-stimulating agents” (priority 2001, published 2005)
“Also recorded” adds a separate entry of the source.

How the values were obtained:
BALB/c mice [1] = experiment: Primary antibody response to Ars-KLH with AICAR or 6-MPR, serum ELISA (Example 10); assay type: in vivo; conditions: 3 mg i.p. with Ars-KLH 100 μg; for antigen-specific IgG antibodies: vs antigen without adjuvant, day 19
Experimental: BALB/c micereceived an intraperitoneal injection of Ars-KLH (100 μg), Ars-KLH+AICAR (3 mg) or Ars-KLH+6-MPR (3 mg). 19 days after Immunization, mice were bled and serum levels of antigen specific antibodies were determined by ELISA according to standard procedure using isotype-specific rat Mab.

BALB/c mice [2] = experiment: Primary and secondary antibody response to Ars-KLH with oligomycin, serum ELISA (Example 11); assay type: in vivo; conditions: oligomycin 10 μg i.p. with Ars-KLH 50 μg, vs antigen alone; primary (day 21) and secondary (14 days after boost)
Experimental: BALB/C mice were injected intraperitoneally with Ars-KLH (50 μg) mixed with saline, AICA-riboside (3 mg) or oligomycin (10 μg). 21 days after immunization, mice were bled and serum levels of Ars-specific antibodies (primary response) were determined by ELISA according to standard procedure using isotype-specific rat mAb. […] On day 22, all mice received a second injection of Ars-KLH (50 μg) intrapertioneally. Mice were bled 14 days after the antigen boost and serum levels of Ars-KLH-specific antibodies (secondary response) were determined by ELISA.

BALB/c mice [3] = experiment: Ars-KLH antibody response, timing of AICA-riboside injection relative to antigen (Example 6); assay type: in vivo; conditions: AICA-riboside 10 mg i.p. at d-1, d0 or d+1, separate site from Ars-KLH 100 μg
Experimental: BALB/c mice received an intraperitoneal injection of AICA-riboside (10 mg) one day before (d-1), the same day (d0) or the day after (d+1) the intraperitoneal injection (in a separate site) of Ars-KLH (100 μg). A fourth group (n.t.) received an intraperitoneal injection of phosphate buffer solution the day of the antigen administration. 20 days after immunization, mice were bled and serum levels of Ars-specific antibodies were determined by ELISA according to standard procedures using isotype-specific reagents (primary response). On day 21, all mice received a boost of Ars-KLH (50 μg) intraperitoneally. Mice were bled 14 days after the antigen boost and serum levels of Ars-specific antibodies were determined by ELISA as described previously (secondary response).

BALB/c mice [4] = experiment: Ars-KLH antibody response over a range of AICA-riboside doses (Example 5); assay type: in vivo; conditions: AICA-riboside 3 to 0.3 mg i.p. with Ars-KLH 100 μg; primary and secondary response
Experimental: BALB/c mice received an intraperitoneal injection of Ars-KLH (100 μg) or Ars-KLH (100 μg)+AICA-riboside at concentrations ranging from 3 to 0.3 mg. 21 days after immunization, mice were bled and serum levels of antigen (Ars)-specific antibodies were determined by ELISA according to standard procedure using isotype-specific reagents (primary response). On day 22, all mice received a boost of Ars-KLH (50 μg) intraperitoneally. Mice were bled 14 days after the antigen boost and serum levels of Ars-specific antibodies were determined by ELISA as described previously (secondary response). The results are illustrated in FIG. 5.

BALB/c mice [5] = experiment: Antigen (NP)-specific antibody response to NP-KLH, serum ELISA (Example 1); assay type: in vivo
Experimental: BALB/c mice were injected intraperitoneally with 200 μl of saline, aqueous solution (phosphate buffer solution), or with 200 μl of phosphate buffer solution containing AICA-riboside (10 mg), NP-KLH (100 μg) or NP-KLH (100 μg)+AICA-riboside (10 mg). Height days after immunization, mice were bled and serum levels of antigen (NP)-specific antibodies were determined by ELISA according to standard procedure using isotype-specific reagents.

BALB/c mice [6] = experiment: Primary, secondary and day 120 Ars-specific antibody response to Ars-KLH, serum ELISA (Examples 2 and 3); assay type: in vivo
Experimental: Three groups of BALB/c mice received an intraperitoneal injection of Ars-KLH (100 μg), Ars-KLH (100 μg)+AICA-riboside (10 mg) or Ars-KLH (100 μg)+Alum (50 μl). 21 days after immunization, mice were bled and serum levels of antigen (Ars)-specific antibodies were determined by ELISA as previously described (primary response). On day 22, all mice received a second injection (boost) of Ars-KLH (100 μg) i.p. Mice were bled 8 days after the antigen boost and serum levels of Ars-specific antibodies were determined by ELISA (secondary response). The results are illustrated in FIG. 2.
Mice immunized according to the protocol described in example 2 were bled 120 days after the first encounter with the antigen (in the presence or absence of adjuvant) and serum levels of antigen specific antibodies were determined by ELISA as described previously (secondary response, day 120).

mice = experiment: Serum antibody response in mice to protein antigens mixed with AICA-riboside (general studies); assay type: in vivo
Excerpt: (§1) Although the precise mechanism(s) by which AICA-riboside augments antibody responses in vivo is presently unknown, some points are noteworthy in light of the present invention. […] A qualitative change of the humoral response is also observed, as immunoglobulins of the IgG isotype (generally detected only during the secondary response) are already detected during the primary response in animals treated with antigen/AICA-riboside formulations. […] The immuno-potentiating effect of AICA-riboside in combination with said antigen is as good when the compounds are administered mixed together (co-administered) as when administered separately or sequentially. […] The use of this agent therefore probably precludes local pain after injection.

humans = conditions: all dose levels (10 to 100 mg/kg); cited from earlier work
murine lymphocytes = experiment: In vitro response of murine lymphocytes, cytokine secretion; assay type: cell-based
Excerpt: as §1

BALB/c mice [7] = experiment: Local inflammatory response at injection site, GR-1 immunohistochemistry (Example 9); assay type: in vivo; conditions: rear footpad injection; AICA-riboside 2.5 mg or alum 12.5 μg; 8 or 24 hours
Experimental: BALB/c mice were injected with saline (50 μl PBS), AICA-boside (2.5 mg) or alum (12.5 μg) in the two rear footpads. 8 or 24 hours after treatment mice were sacrificed, and thin sections of the tissues surrounding the injection site (marked by a circle) were analyzed by immunohistochemistry. Inflammatory cells (mostly granulocytes and monocytes) were identified using an antibody directed to the murine GR-1 molecule.

BALB/c mice [8] = experiment: Primary and secondary antibody response to human gamma globulins (HGG), serum ELISA (Example 4); assay type: in vivo; conditions: HGG 15 μg + AICA-riboside 10 mg i.p., boost day 25
Experimental: BALB/c mice received an intraperitoneal injection of HGG (15 μg) or HGG (15 μg)+AICA-riboside (10 mg). 16 days after immunization, mice were bled and serum levels of HGG-specific antibodies were determined by ELISA as described. On day 25, the two groups of mice received respectively a boost of HGG (15 μg) and of HGG (15 μg)+AICA-riboside (10 mg) intraperitoneally. Mice were bled 10 days after the boost and serum levels of HGG-specific antibodies were determined by ELISA as described previously (secondary response). The results are illustrated in FIG. 4.

BALB/c mice [9] = experiment: NP-KLH antibody response in anti-CD4 treated mice (Example 7); assay type: in vivo; conditions: anti-CD4 (GK1.5) treated mice; NP-KLH 100 μg + AICA-riboside 10 mg i.p.; day 10
Experimental: BALB/c mice, were treated or not with anti-CD4 antibodies (two intraperitoneal injections of 200 μl of the depleting rat anti-mouse anti-CD4 antibody, clone GK1.5, on days 0 and 5). On day 2 mice were injected intraperitoneally with NP-KLH (100 μg) or NP-KLH (100 μg)+AICA-riboside (10 mg). 10 days after immunization, mice were bled and serum levels of NP-specific antibodies were determined by ELISA according to standard procedures using isotype specific reagents.

BALB/c mice [10] = experiment: Size of draining lymph nodes after footpad injection (Example 8); assay type: in vivo; conditions: rear footpad injection with NP-KLH 25 μg; AICA-riboside 2.5 mg or Alum 12.5 μg; 8 days
Experimental: BALB/c mice were injected with NP-KLH (25 μg), NP-KLH (25 μg)+AICA-riboside (2.5 mg) or NP-KLH (25 μg)+Alum (12.5 μg) in the two rear footpads. 8 days after injection, mice were sacrificed and their posterior lymph nodes were collected and immediately analyzed for size.

OC[C@H]1O[C@@H](n2cnc3c(S)ncnc32)[C@H](O)[C@@H]1O [6-MPR, 6-mercaptopurine riboside]
antigen-specific IgG antibodies (BALB/c mice [1]): increased levels of antigen-specific IgG antibodies

CC[C@H]1/C=C/C=C/C[C@@H](C)[C@H](O)[C@@](C)(O)C(=O)[C@@H](C)[C@H](O)[C@@H](C)C(=O)[C@@H](C)[C@H](O)[C@@H](C)/C=C/C(=O)O[C@@H]2[C@H](C)[C@H](CC1)O[C@]1(CC[C@H](C)[C@H](C[C@@H](C)O)O1)[C@H]2C [oligomycin]
antigen-specific IgG antibodies (BALB/c mice [2]): increased levels of antigen-specific IgG antibodies; also recorded: increases antibody responses

NC(=O)c1ncn([C@@H]2O[C@H](CO)[C@@H](O)[C@H]2O)c1N [AICA-riboside, 5-aminoimidazole-4-carboxamide riboside]
adjuvant effect depending on time of injection (BALB/c mice [3]): only manifest when AICA-riboside is injected at the same moment with the antigen | adjuvant activity over dose range (BALB/c mice [4]): can act as an adjuvant over a wide range of doses | antigen (NP)-specific antibody response (BALB/c mice [5]; AICA-riboside 10 mg co-administered i.p. with NP-KLH 100 μg, vs antigen alone, bled Height days after immunization): increased antigen-specific antibody response | antigen (NP)-specific antibody response (BALB/c mice [5]; AICA-riboside 10 mg i.p. alone, without antigen): does not lead to an increased, antigen-specific antibody response | antigen-specific IgM response (BALB/c mice [6]; 10 mg i.p. with Ars-KLH 100 μg, vs antigen without adjuvant): unaffected | antigen-specific IgG antibodies (BALB/c mice [6]; 10 mg i.p. with Ars-KLH 100 μg, vs antigen without adjuvant, primary (day 21) and secondary (8 days after boost) response): increased levels of antigen-specific IgG antibodies | immuno-stimulatory properties compared with Alum (BALB/c mice [6]; AICA-riboside 10 mg vs Alum 50 μl, each with Ars-KLH 100 μg i.p.): comparable to the Alum adjuvant | antigen-specific response, day 120 (BALB/c mice [6]; bled 120 days after first encounter with antigen, vs antigen alone): long-lasting increase in antigen-specific response | local inflammatory response following injection (mice; injection into mice): no local inflammatory response was observed | boost of serum antibody response above unadjuvanted antigens (mice; mixed in aqueous solutions with protein antigens, mice): five to ten folds | antigen-specific IgG antibodies (BALB/c mice [1]): increased levels of antigen-specific IgG antibodies | Ars specific antibodies concentrations (BALB/c mice [1]; serum 19 days after immunization, Ars-KLH+saline control 0.04): 1.607 ± 0.521 µg/mL | tolerability in humans (humans): well tolerated | secretion of cytokines (murine lymphocytes; in response to bacterial mitogens, lectins or protein antigens): did not affect the secretion of cytokines | enhancing effect on in vitro response of murine lymphocytes (murine lymphocytes; in vitro): no enhancing effect | GR-1-expressing inflammatory cell recruitment / cellular infiltrates (BALB/c mice [7]): minimal GR-1-expressing cells recruitment to sites distant from the injection site | tissue necrosis at injection site (BALB/c mice [7]): no tissue necrosis or abnormality | antibody response to protein antigen HGG (BALB/c mice [8]): augments the antibody response | antigen-specific antibody responses in the absence of CD4-expressing T cells (BALB/c mice [9]): does not augment the antigen-specific antibody responses | swelling of the lymph node draining the injection site (BALB/c mice [10]): does not induce the swelling
